Assays:
Experiment in all cases: Test C greenhouse herbicide test, pre- and postemergence
Assay type in all cases: in vivo
[1] = test system: wheat (winter wheat, Triticum aestivum)
In short: (§1)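 Visual ratings on a 0 to 100 scale (0 = no effect, 100 = complete control) versus untreated controls, scored 13–15 d after treatment. Soil-applied preemergence to seeded loam/sand; foliar postemergence to 1- to 4-leaf plants (2–18 cm) in peat-vermiculite mix; compounds formulated in solvent plus surfactant.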

[2] = test system: pigweed (Amaranthus retroflexus)
In short: as §1

[3] = test system: waterhemp (common waterhemp, Amaranthus rudis)
In short: as §1

[4] = test system: ragweed (common ragweed, Ambrosia elatior)
In short: as §1

[5] = test system: blackgrass (Alopecurus myosuroides)
In short: as §1

[6] = test system: barnyardgrass (Echinochloa crus-galli)
In short: as §1

[7] = test system: morningglory (Ipomoea coccinea)
In short: as §1

corn (Zea mays) = test system: corn (Zea mays)
In short: as §1

[8] = test system: galium (catchweed bedstraw, Galium aparine)
In short: as §1

[9] = test system: ryegrass, Italian (Italian ryegrass, Lolium multiflorum)
In short: as §1

[10] = test system: crabgrass, large (large crabgrass, Digitaria sanguinalis)
In short: as §1

[11] = test system: lambsquarters (Chenopodium album)
In short: as §1

[12] = test system: oilseed rape (Brassica napus)
In short: as §1

[13] = test system: velvetleaf (Abutilon theophrasti)
In short: as §1

[14] = test system: foxtail, giant (giant foxtail, Setaria faberii)
In short: as §1

[15] = Postemergence, 31 g ai/ha, scale 0 to 100 (0 no effect, 100 complete control)
[16] = Postemergence, 125 g ai/ha, scale 0 to 100, 0 is no effect, 100 is complete control
[17] = Postemergence, 250 g ai/ha, scale 0 to 100, 0 no effect, 100 complete control, 13 to 15 d
[18] = Preemergence, 31 g ai/ha, scale 0 to 100, 0 is no effect, 100 is complete control
[19] = Preemergence, 62 g ai/ha, scale 0 to 100, 0 is no effect, 100 is complete control
[20] = Preemergence, 250 g ai/ha, scale 0 to 100, 0 no effect, 100 complete control
[21] = Preemergence, 125 g ai/ha, scale 0 to 100, 0 is no effect, 100 is complete control
[22] = postemergence, 62 g ai/ha, scale 0 to 100, 0 no effect, 100 complete control

Cc1ccc2ccccc2c1-c1c(O)c(C(F)(F)F)nn(C)c1=O [Compound 102]
Plant response rating, Wheat [1, 15]: 0
Plant response rating, Wheat [1, 16]: 5
Plant response rating, Wheat [1, 17]: 5
Plant response rating, Wheat [1, 18]: 0
Plant response rating, Wheat [1, 19]: 5
Wheat plant response rating [1, 20]: 25
Plant response rating, Pigweed [2, 15]: 75
Plant response rating, Pigweed [2, 16]: 95
Plant response rating, Pigweed [2, 17]: 100
Plant response rating, Pigweed [2, 18]: 75
Plant response rating, Pigweed [2, 19]: 85
Plant response rating, Pigweed [2, 21]: 98
Pigweed plant response rating [2, 20]: 100
Plant response rating, Waterhemp [3, 15]: 25
Plant response rating, Waterhemp [3, 16]: 80
Plant response rating, Waterhemp [3, 17]: 85
Plant response rating, Waterhemp [3, 18]: 75
Plant response rating, Waterhemp [3, 19]: 65
Plant response rating, Waterhemp [3, 21]: 75
Waterhemp plant response rating [3, 20]: 85
Plant response rating, Ragweed [4, 15]: 95
Plant response rating, Ragweed [4, 16]: 100
Plant response rating, Ragweed [4, 17]: 100
Plant response rating, Ragweed [4, 18]: 70
Plant response rating, Ragweed [4, 19]: 75
Plant response rating, Ragweed [4, 21]: 90
Ragweed plant response rating [4, 20]: 100
Plant response rating, Blackgrass [5, 15]: 0
Plant response rating, Blackgrass [5, 16]: 5
Plant response rating, Blackgrass [5, 17]: 10
Plant response rating, Blackgrass [5, 18]: 0
Plant response rating, Blackgrass [5, 19]: 50
Plant response rating, Blackgrass [5, 21]: 45
Blackgrass plant response rating [5, 20]: 70
Blackgrass plant response rating [5, 22]: 5
Plant response rating, Barnyardgrass [6, 15]: 20
Plant response rating, Barnyardgrass [6, 16]: 35
Plant response rating, Barnyardgrass [6, 17]: 40
Plant response rating, Barnyardgrass [6, 18]: 5
Plant response rating, Barnyardgrass [6, 19]: 10
Plant response rating, Barnyardgrass [6, 21]: 30
Barnyardgrass plant response rating [6, 20]: 85
Barnyardgrass plant response rating [6, 22]: 20
Plant response rating, Morningglory [7, 15]: 100
Plant response rating, Morningglory [7, 16]: 100
Plant response rating, Morningglory [7, 17]: 100
Plant response rating, Morningglory [7, 18]: 45
Plant response rating, Morningglory [7, 19]: 75
Plant response rating, Morningglory [7, 21]: 85
Morningglory plant response rating [7, 20]: 98
Plant response rating, Corn (corn (Zea mays); [15]): 0
Plant response rating, Corn (corn (Zea mays); [16]): 10
Plant response rating, Corn (corn (Zea mays); [17]): 10
Plant response rating, Corn (corn (Zea mays); [18]): 5
Plant response rating, Corn (corn (Zea mays); [19]): 10
Plant response rating, Corn (corn (Zea mays); [21]): 20
Corn plant response rating (corn (Zea mays); [20]): 30
Corn plant response rating (corn (Zea mays); [22]): 0
Plant response rating, Galium [8, 15]: 90
Plant response rating, Galium [8, 16]: 95
Plant response rating, Galium [8, 17]: 95
Plant response rating, Galium [8, 21]: 95
Galium plant response rating [8, 20]: 95
Plant response rating, Ryegrass, Italian [9, 15]: 0
Plant response rating, Ryegrass, Italian [9, 16]: 25
Plant response rating, Ryegrass, Italian [9, 17]: 30
Plant response rating, Ryegrass, Italian [9, 18]: 15
Plant response rating, Ryegrass, Italian [9, 19]: 25
Plant response rating, Ryegrass, Italian [9, 21]: 50
Ryegrass, Italian plant response rating [9, 20]: 70
Plant response rating, Crabgrass, Large [10, 15]: 5
Plant response rating, Crabgrass, Large [10, 16]: 20
Plant response rating, Crabgrass, Large [10, 17]: 15
Plant response rating, Crabgrass, Large [10, 18]: 0
Plant response rating, Crabgrass, Large [10, 19]: 5
Plant response rating, Crabgrass, Large [10, 21]: 30
Crabgrass, Large plant response rating [10, 20]: 55
Crabgrass, Large plant response rating [10, 22]: 10
Plant response rating, Lambsquarters [11, 15]: 75
Plant response rating, Lambsquarters [11, 16]: 70
Plant response rating, Lambsquarters [11, 17]: 100
Plant response rating, Lambsquarters [11, 18]: 70
Plant response rating, Lambsquarters [11, 19]: 85
Plant response rating, Lambsquarters [11, 21]: 85
Lambsquarters plant response rating [11, 20]: 100
Plant response rating, Oilseed Rape [12, 15]: 0
Plant response rating, Oilseed Rape [12, 16]: 5
Plant response rating, Oilseed Rape [12, 17]: 30
Plant response rating, Oilseed Rape [12, 18]: 0
Plant response rating, Oilseed Rape [12, 19]: 10
Plant response rating, Oilseed Rape [12, 21]: 10
Oilseed Rape plant response rating [12, 20]: 35
Plant response rating, Velvetleaf [13, 15]: 30
Plant response rating, Velvetleaf [13, 16]: 100
Plant response rating, Velvetleaf [13, 17]: 100
Plant response rating, Velvetleaf [13, 18]: 65
Plant response rating, Velvetleaf [13, 19]: 85
Plant response rating, Velvetleaf [13, 21]: 85
Velvetleaf plant response rating [13, 20]: 100
Plant response rating, Foxtail, Giant [14, 15]: 20
Plant response rating, Foxtail, Giant [14, 16]: 60
Plant response rating, Foxtail, Giant [14, 17]: 75
Plant response rating, Foxtail, Giant [14, 18]: 30
Plant response rating, Foxtail, Giant [14, 19]: 75
Plant response rating, Foxtail, Giant [14, 21]: 85
Foxtail, Giant plant response rating [14, 20]: 90

CCCC(=O)Oc1c(C)nn(C)c(=O)c1-c1c(C)sc2ccc(C)cc12 [Compound 105]
Plant response rating, Wheat [1, 15]: 0
Plant response rating, Wheat [1, 16]: 5
Plant response rating, Wheat [1, 17]: 5
Plant response rating, Wheat [1, 18]: 0
Plant response rating, Wheat [1, 19]: 10
Plant response rating, Wheat [1, 21]: 10
Wheat plant response rating [1, 20]: 5
Plant response rating, Pigweed [2, 15]: 85
Plant response rating, Pigweed [2, 16]: 100
Plant response rating, Pigweed [2, 17]: 98
Plant response rating, Pigweed [2, 18]: 98
Plant response rating, Pigweed [2, 19]: 100
Plant response rating, Pigweed [2, 21]: 100
Pigweed plant response rating [2, 20]: 100
Plant response rating, Waterhemp [3, 15]: 80
Plant response rating, Waterhemp [3, 16]: 100
Plant response rating, Waterhemp [3, 17]: 98
Plant response rating, Waterhemp [3, 18]: 90
Plant response rating, Waterhemp [3, 19]: 95
Plant response rating, Waterhemp [3, 21]: 100
Waterhemp plant response rating [3, 20]: 100
Plant response rating, Ragweed [4, 15]: 90
Plant response rating, Ragweed [4, 16]: 98
Plant response rating, Ragweed [4, 17]: 100
Plant response rating, Ragweed [4, 18]: 90
Plant response rating, Ragweed [4, 19]: 90
Plant response rating, Ragweed [4, 21]: 98
Ragweed plant response rating [4, 20]: 100
Plant response rating, Blackgrass [5, 15]: 15
Plant response rating, Blackgrass [5, 16]: 50
Plant response rating, Blackgrass [5, 17]: 60
Plant response rating, Blackgrass [5, 18]: 20
Plant response rating, Blackgrass [5, 19]: 50
Plant response rating, Blackgrass [5, 21]: 55
Blackgrass plant response rating [5, 20]: 90
Blackgrass plant response rating [5, 22]: 40
Plant response rating, Barnyardgrass [6, 15]: 10
Plant response rating, Barnyardgrass [6, 16]: 25
Plant response rating, Barnyardgrass [6, 17]: 20
Plant response rating, Barnyardgrass [6, 18]: 0
Plant response rating, Barnyardgrass [6, 19]: 30
Plant response rating, Barnyardgrass [6, 21]: 60
Barnyardgrass plant response rating [6, 20]: 90
Barnyardgrass plant response rating [6, 22]: 25
Plant response rating, Morningglory [7, 15]: 100
Plant response rating, Morningglory [7, 16]: 100
Plant response rating, Morningglory [7, 17]: 100
Plant response rating, Morningglory [7, 18]: 85
Plant response rating, Morningglory [7, 19]: 90
Plant response rating, Morningglory [7, 21]: 100
Morningglory plant response rating [7, 20]: 95
Plant response rating, Corn (corn (Zea mays); [15]): 10
Plant response rating, Corn (corn (Zea mays); [16]): 30
Plant response rating, Corn (corn (Zea mays); [17]): 30
Plant response rating, Corn (corn (Zea mays); [18]): 0
Plant response rating, Corn (corn (Zea mays); [19]): 0
Plant response rating, Corn (corn (Zea mays); [21]): 5
Corn plant response rating (corn (Zea mays); [20]): 25
Corn plant response rating (corn (Zea mays); [22]): 15
Plant response rating, Galium [8, 15]: 95
Plant response rating, Galium [8, 16]: 95
Plant response rating, Galium [8, 17]: 100
Plant response rating, Galium [8, 18]: 85
Plant response rating, Galium [8, 19]: 90
Plant response rating, Galium [8, 21]: 95
Galium plant response rating [8, 20]: 98
Plant response rating, Ryegrass, Italian [9, 15]: 85
Plant response rating, Ryegrass, Italian [9, 16]: 90
Plant response rating, Ryegrass, Italian [9, 17]: 80
Plant response rating, Ryegrass, Italian [9, 18]: 40
Plant response rating, Ryegrass, Italian [9, 19]: 90
Plant response rating, Ryegrass, Italian [9, 21]: 90
Ryegrass, Italian plant response rating [9, 20]: 95
Plant response rating, Crabgrass, Large [10, 15]: 20
Plant response rating, Crabgrass, Large [10, 16]: 20
Plant response rating, Crabgrass, Large [10, 17]: 30
Plant response rating, Crabgrass, Large [10, 18]: 20
Plant response rating, Crabgrass, Large [10, 19]: 50
Plant response rating, Crabgrass, Large [10, 21]: 75
Crabgrass, Large plant response rating [10, 20]: 80
Crabgrass, Large plant response rating [10, 22]: 30
Plant response rating, Lambsquarters [11, 15]: 85
Plant response rating, Lambsquarters [11, 16]: 100
Plant response rating, Lambsquarters [11, 17]: 100
Plant response rating, Lambsquarters [11, 18]: 95
Plant response rating, Lambsquarters [11, 19]: 85
Plant response rating, Lambsquarters [11, 21]: 90
Lambsquarters plant response rating [11, 20]: 95
Plant response rating, Oilseed Rape [12, 15]: 5
Plant response rating, Oilseed Rape [12, 16]: 60
Plant response rating, Oilseed Rape [12, 17]: 75
Plant response rating, Oilseed Rape [12, 18]: 0
Plant response rating, Oilseed Rape [12, 19]: 5
Plant response rating, Oilseed Rape [12, 21]: 10
Oilseed Rape plant response rating [12, 20]: 10
Plant response rating, Velvetleaf [13, 15]: 75
Plant response rating, Velvetleaf [13, 16]: 90
Plant response rating, Velvetleaf [13, 17]: 100
Plant response rating, Velvetleaf [13, 18]: 60
Plant response rating, Velvetleaf [13, 19]: 85
Plant response rating, Velvetleaf [13, 21]: 90
Velvetleaf plant response rating [13, 20]: 95
Plant response rating, Foxtail, Giant [14, 15]: 40
Plant response rating, Foxtail, Giant [14, 16]: 75
Plant response rating, Foxtail, Giant [14, 17]: 85
Plant response rating, Foxtail, Giant [14, 18]: 60
Plant response rating, Foxtail, Giant [14, 19]: 80
Plant response rating, Foxtail, Giant [14, 21]: 90
Foxtail, Giant plant response rating [14, 20]: 100

Source: US10597388B2, “Pyridazinone herbicides” (FMC CORPORATION, priority 2014, dated 2020)
